These results are taken from patent US20250243196A1, “CITRON KINASE INHIBITORS” (The Cleveland Clinic Foundation, priority 2021, published 2025).

For assay [1], the target named is NanoLuc-CITK (full-length human CITK) (Homo sapiens (Human), UniProt O14578). Kind of assay: NanoBRET intracellular target engagement assay. Format: cell-based. The protocol:
In-cell Kd values were evaluated with a NanoBRET Target Engagement Assay essentially as recommended by the manufacturer (Promega Corporation—for details see https://www.promega.com/resources/technologies/nanoluc-luciferase-enzyme/cellular-target-engagement/).
HEK293T cells were transfected with 5.0 μg/mL sterile NanoLuc-CITK DNA, 5.0 μg/mL Transfection Carrier DNA, and 30 μL/mL FugeneHD® (Promega) in Opti-Mem™ (Thermo) media at a cell density of 250,000 cells/mL. […] 5 μL of the 25× Tracer K10 solution was added to each well. Next, designated inhibitors were prepared from powder as 10 mM DMSO stocks and then further diluted to 10× the final assay concentration in Opti-Mem™. 12-pt dose-response curves were prepared by 3×-serial dilution. […] A 3× Complete Substrate+Inhibitor solution, containing 6 mL of Opti-Mem™, 36 μL of NanoBRET Nano-Glo Substrate, and 12 μL Extracellular NanoLuc Inhibitor was freshly prepared for each plate. 50 μL of the 3× Complete Substrate+Inhibitor solution was added to all wells and the plate was incubated for 2 min with 500 RPM shaking. The bottom of the plates were covered with black plate seals and then measured on a Cytation 5 plate reader (Biotek) with a NanoBRET Filter Cube (Biotek; 450/50 emission & 610LP emission). Background corrected BRET ratios (in mBU) were calculated in Excel and IC50's were subsequently extracted using four-parameter non-linear regression in GraphPad Prism 8.

Assay [2] deals with T1, Citron kinase (Homo sapiens (Human), UniProt O14578). Briefly: Radiometric citron kinase assay (Eurofins Cat #16-040KP). The format is biochemical. In a few lines:
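Radiometric KinaseProfiler format: test compound incubated with kinase, substrate, cofactors and radiolabelled ATP; unreacted ATP washed away and radiolabelled phosphate incorporated into substrate measured. IC50 derived from inhibition of phosphorylation. Values are means of at least two independent assays.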

The target in assay [3] is T1, Citron kinase. Kind of assay: TR-FRET citron kinase assay (Eurofins Cat #2628). Format: biochemical. The following applies: mean of at least two independent assays; read-out: TR-FRET CitK IC50. The text has this: Compounds were screened for biochemical kinase activity (Eurofins Discovery, France) using one of two assays. […] All values in Table 1 are the mean of at least two independent assays.

In assay [4] the target is ROCK-2 (Homo sapiens (Human), UniProt O75116). Briefly: KinaseProfiler radiometric assay (14-451KP). As to conditions: mean of at least two independent experiments. Format: biochemical. The text has this: (§1) In another aspect, disclosed is a method of inhibiting citron kinase in a sample, comprising contacting the sample with a compound described herein (e.g., a compound of formula (I) or a pharmaceutically acceptable salt thereof), or a pharmaceutical composition described herein (e.g., a pharmaceutical composition comprising a compound of formula (I) or a pharmaceutically acceptable salt thereof), in an amount effective to inhibit citron kinase. In some embodiments, the step of contacting the sample with the compound comprises administering the compound to a subject (e.g., a subject) suffering from cancer. Methods of determining kinase inhibition are well known in the art. For example, kinase activity of an enzyme and the inhibitory capacity of a test compound can be determined by measuring enzyme specific phosphorylation of a substrate. Commercial assays and kits can be employed. For example, kinase inhibition can be determined using a radiometric binding assay, such as using KinaseProfiler™ technology (Eurofins Discovery). This assay method directly detects product formation without the use of modified substrates or coupling enzymes. Test compounds are incubated with kinase, substrate, required cofactors and radioisotope labeled ATP. Following incubation, unreacted radioactive ATP is removed by washing and incorporation of the radiolabeled phosphate into the kinase substrate is assayed to detect phosphoryltransferase activity, which is directly proportional to the amount of phosphorylated substrate. Inhibition of the kinase by a kinase inhibitor prevents phosphorylation of the substrate and thereby limits the incorporation of radiolabeled phosphate. Such an assay is compatible with a microwell assay format, allowing simultaneous determination of IC50 of multiple compounds.
(§2) The effect of various compounds on the inhibition of other kinases has also been determined. Table 2 reports measured IC50 values; value units are nanomolar inhibition.

Assay [5] deals with PKAα (Homo sapiens (Human), UniProt P17612). Briefly: KinaseProfiler radiometric assay (14-440KP). Format: biochemical. The following applies: mean of at least two independent experiments.
Text: as §1, §2

Assay [6] has as its target IKKβ (Homo sapiens (Human), UniProt O14920). Briefly: KinaseProfiler radiometric assay (14-485KP). Format: biochemical. The following applies: mean of at least two independent experiments.
Text: as §1, §2

The target of assay [7] is TRK-B (Homo sapiens (Human), UniProt Q16620). Kind of assay: KinaseProfiler radiometric assay (14-507KP). Format: biochemical. As to conditions: mean of at least two independent experiments.
Text: as §1, §2

Assay [8] concerns the target ROCK-1 (Homo sapiens (Human), UniProt Q13464). Briefly: KinaseProfiler radiometric assay (14-601KP). Format: biochemical. As to conditions: mean of at least two independent experiments.
Text: as §1, §2

Assay [9] concerns the target AKT-1 (Homo sapiens (Human), UniProt P31749). Kind of assay: KinaseProfiler radiometric assay (14-276KP). Format: biochemical. The following applies: mean of at least two independent experiments.
Text: as §1, §2

Assay [10] has as its target AUR-B (Homo sapiens (Human), UniProt Q96GD4). Kind of assay: KinaseProfiler radiometric assay (14-835KP). The format is biochemical. The following applies: mean of at least two independent experiments.
Text: as §1, §2

Where [11] appears, read: HEK293T cells transfected with NanoLuc-CITK, Tracer K10 1 μM, 2 hours.
Setting [12] is: mean of at least two independent assays, read-out: Radiometric CitK IC50.

NanoLuc-CITK (full-length human CITK), sequence (O14578 other isoform, or with tags, fused parts or gaps): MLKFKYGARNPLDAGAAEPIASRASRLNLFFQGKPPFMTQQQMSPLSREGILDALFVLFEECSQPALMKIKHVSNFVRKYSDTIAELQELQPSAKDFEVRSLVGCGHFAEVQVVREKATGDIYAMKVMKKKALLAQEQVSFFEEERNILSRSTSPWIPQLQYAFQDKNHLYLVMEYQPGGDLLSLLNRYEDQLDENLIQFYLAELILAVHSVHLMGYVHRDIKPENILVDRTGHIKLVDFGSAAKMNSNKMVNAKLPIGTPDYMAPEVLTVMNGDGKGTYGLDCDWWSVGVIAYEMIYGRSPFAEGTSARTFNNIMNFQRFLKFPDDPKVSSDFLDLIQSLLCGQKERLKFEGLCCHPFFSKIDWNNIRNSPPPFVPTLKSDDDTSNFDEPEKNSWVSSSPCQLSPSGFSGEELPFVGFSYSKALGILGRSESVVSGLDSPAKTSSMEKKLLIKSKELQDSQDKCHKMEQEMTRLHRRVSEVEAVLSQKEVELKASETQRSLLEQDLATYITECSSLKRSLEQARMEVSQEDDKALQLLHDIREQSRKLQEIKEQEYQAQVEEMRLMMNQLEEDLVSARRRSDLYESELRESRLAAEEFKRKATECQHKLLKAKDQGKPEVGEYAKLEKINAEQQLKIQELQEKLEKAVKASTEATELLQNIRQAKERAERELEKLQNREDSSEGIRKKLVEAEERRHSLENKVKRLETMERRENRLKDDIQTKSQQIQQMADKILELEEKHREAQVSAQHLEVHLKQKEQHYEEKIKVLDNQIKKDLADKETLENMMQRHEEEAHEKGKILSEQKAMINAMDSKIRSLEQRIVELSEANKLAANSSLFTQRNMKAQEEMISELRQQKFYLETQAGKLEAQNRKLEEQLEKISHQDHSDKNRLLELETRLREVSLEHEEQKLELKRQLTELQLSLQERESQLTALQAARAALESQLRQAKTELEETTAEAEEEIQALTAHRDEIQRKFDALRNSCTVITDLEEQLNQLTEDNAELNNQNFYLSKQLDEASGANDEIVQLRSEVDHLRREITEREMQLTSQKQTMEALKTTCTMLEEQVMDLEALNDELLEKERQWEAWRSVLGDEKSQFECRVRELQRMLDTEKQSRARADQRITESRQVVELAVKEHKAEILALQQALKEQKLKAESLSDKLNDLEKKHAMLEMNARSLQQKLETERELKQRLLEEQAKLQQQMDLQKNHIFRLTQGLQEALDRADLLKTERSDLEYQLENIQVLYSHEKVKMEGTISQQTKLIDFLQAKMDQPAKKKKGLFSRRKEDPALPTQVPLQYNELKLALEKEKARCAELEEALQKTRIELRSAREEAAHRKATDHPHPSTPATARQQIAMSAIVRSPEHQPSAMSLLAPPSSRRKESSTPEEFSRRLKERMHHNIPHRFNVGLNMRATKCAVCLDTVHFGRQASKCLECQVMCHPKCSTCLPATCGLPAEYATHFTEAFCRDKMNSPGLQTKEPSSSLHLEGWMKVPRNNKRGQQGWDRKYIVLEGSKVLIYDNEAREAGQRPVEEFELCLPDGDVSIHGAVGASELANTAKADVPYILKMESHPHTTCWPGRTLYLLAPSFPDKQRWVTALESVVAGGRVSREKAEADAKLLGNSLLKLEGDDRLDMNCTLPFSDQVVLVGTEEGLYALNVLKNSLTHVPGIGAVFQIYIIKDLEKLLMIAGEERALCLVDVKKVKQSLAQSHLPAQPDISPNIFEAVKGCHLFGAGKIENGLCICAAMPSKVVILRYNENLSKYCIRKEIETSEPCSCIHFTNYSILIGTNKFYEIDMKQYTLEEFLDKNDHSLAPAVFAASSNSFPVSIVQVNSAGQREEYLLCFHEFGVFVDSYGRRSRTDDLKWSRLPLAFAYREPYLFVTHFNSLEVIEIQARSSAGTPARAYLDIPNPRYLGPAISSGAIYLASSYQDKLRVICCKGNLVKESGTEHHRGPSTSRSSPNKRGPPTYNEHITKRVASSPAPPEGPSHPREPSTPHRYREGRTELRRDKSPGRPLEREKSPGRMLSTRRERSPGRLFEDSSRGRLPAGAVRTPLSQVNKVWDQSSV
ROCK-2, sequence (O75116 whole entry): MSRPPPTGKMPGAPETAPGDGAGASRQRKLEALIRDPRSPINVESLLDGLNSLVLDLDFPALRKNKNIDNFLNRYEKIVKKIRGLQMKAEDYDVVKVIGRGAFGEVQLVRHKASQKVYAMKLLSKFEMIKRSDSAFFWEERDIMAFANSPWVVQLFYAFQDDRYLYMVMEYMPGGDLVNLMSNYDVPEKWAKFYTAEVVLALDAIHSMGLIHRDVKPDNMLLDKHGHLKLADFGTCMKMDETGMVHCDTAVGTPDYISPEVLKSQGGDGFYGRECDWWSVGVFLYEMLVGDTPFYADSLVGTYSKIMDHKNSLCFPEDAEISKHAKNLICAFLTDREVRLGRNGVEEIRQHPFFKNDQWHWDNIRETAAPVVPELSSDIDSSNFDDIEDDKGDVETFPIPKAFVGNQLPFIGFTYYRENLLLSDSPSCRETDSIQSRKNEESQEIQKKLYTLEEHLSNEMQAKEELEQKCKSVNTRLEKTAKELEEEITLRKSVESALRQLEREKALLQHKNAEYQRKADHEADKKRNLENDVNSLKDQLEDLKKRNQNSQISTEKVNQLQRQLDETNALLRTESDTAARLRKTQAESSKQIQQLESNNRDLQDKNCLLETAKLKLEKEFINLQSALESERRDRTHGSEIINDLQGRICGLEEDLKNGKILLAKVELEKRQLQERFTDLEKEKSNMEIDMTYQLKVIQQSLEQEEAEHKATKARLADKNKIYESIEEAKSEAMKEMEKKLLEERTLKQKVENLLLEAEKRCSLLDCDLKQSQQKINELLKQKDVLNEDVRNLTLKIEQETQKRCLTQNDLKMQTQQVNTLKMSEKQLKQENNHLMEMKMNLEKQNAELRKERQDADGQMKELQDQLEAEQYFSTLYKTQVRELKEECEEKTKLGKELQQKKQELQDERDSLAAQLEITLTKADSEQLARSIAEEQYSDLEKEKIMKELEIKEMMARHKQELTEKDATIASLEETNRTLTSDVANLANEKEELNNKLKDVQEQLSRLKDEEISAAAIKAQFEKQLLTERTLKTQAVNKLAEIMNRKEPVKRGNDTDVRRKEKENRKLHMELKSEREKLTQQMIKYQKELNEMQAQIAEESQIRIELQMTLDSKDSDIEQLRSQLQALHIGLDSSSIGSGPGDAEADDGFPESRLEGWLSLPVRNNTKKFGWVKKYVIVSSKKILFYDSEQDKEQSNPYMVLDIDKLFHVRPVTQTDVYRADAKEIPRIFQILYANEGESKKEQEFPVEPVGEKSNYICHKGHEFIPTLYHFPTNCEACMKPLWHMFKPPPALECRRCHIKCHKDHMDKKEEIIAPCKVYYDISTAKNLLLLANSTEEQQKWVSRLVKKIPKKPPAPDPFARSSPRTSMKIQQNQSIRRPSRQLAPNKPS
IKKβ, sequence (O14920 whole entry): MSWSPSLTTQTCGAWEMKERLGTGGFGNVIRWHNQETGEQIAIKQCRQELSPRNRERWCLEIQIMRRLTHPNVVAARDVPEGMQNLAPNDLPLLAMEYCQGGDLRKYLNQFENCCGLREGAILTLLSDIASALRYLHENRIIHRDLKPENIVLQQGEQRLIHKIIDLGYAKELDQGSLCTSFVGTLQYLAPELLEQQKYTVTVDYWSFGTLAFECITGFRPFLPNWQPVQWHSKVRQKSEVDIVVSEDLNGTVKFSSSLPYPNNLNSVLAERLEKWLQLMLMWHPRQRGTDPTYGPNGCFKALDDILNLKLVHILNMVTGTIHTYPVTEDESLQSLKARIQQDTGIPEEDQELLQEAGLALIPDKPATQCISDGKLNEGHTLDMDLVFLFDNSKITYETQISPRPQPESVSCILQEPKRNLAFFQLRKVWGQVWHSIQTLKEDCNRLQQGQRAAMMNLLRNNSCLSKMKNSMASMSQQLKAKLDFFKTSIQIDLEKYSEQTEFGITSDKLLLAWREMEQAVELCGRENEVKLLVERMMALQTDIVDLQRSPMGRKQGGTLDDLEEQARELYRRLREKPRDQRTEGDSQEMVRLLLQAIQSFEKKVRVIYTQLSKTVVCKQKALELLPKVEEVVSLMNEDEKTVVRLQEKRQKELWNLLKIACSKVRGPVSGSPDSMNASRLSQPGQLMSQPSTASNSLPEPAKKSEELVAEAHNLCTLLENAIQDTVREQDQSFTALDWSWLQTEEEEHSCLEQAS
TRK-B, sequence (Q16620 32-822): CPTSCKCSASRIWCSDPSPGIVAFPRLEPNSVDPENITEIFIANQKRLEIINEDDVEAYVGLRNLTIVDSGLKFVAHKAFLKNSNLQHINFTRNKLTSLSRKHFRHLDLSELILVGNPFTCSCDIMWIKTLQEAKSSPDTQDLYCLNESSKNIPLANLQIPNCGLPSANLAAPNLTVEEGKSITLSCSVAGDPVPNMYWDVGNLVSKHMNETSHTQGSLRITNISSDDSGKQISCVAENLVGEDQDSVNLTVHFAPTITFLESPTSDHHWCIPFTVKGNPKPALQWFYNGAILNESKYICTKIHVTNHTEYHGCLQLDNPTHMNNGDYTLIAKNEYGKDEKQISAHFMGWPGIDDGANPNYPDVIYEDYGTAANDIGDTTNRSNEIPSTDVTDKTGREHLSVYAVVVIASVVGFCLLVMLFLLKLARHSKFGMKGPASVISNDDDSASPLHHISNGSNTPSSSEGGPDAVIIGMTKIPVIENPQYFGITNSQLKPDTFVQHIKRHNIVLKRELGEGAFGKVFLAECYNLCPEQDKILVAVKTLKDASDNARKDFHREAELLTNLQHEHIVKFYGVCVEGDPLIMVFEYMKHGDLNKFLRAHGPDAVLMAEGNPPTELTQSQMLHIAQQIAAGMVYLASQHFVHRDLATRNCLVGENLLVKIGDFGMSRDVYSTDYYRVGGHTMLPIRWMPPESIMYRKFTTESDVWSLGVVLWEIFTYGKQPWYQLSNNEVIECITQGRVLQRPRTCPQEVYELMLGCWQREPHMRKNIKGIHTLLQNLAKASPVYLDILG

As for `Cc1cc2c(-c3ccc(NC(=O)[C@H](N)CC(C)(C)C)cc3C)cncc2[nH]1` [6-Azaindole Control, reference compound], the “NanoBRET IC50 (nM)” value in assay [1] (setting [11]) was “No binding”. In addition, in assay [1] (in-cell KD from IC50 by Cheng-Prussoff, [Tracer K10] = 1 μM, KD Tracer K10 = 0.23 μM), the “KD (nM)*” value was “No binding”. In [2] (biochemical assay described in Example 3, read-out: IC50), the IC50 is more than 3 µM.
As to `CC(C)C[C@H](N)C(=O)Nc1ccc(-c2ccnc3[nH]ccc23)cc1` [Compound F-8, (2S)-2-Amino-4-methyl-N-[4-(1H-pyrrolo[2,3-b]pyridin-4-yl)phenyl]pentanamide], the IC50 in assay [2] (setting [12]) stood at 0.0541 µM; in assay [3], 0.0299 µM.
On to `CC(C)(C)[C@@H](N)C(=O)Nc1ccc(-c2ccnc3[nH]ccc23)cc1` [Compound F-13, (2R)-2-Amino-3,3-dimethyl-N-[4-(1H-pyrrolo[2,3-b]pyridin-4-yl)phenyl]butanamide], for which the IC50 amounted to 0.064 µM in [4], 0.001 µM in assay [5] and 0.234 µM in assay [6].
For the compound `NC(C(=O)Nc1ccc(-c2ccnc3[nH]ccc23)cc1)C1CC1` (centres unmarked) [Compound F-18, 2-Amino-2-cyclopropyl-N-[4-(1H-pyrrolo[2,3-b]pyridine-4-yl)phenyl]acetamide], the IC50 in [3] worked out at 0.12 µM.
With `N[C@@H](Cc1ccccc1)C(=O)Nc1ccc(-c2ccnc3[nH]ccc23)cc1` [Compound F-32, (S)-N-(4-(1H-pyrrolo[2,3-b]pyridin-4-yl)phenyl)-2-amino-3-phenylpropanamide], the IC50 in [5] is 0.007 µM; in assay [7] it was 0.469 µM; in assay [8], 0.119 µM; in [9], 1.1 µM; in assay [10], 0.156 µM.
For the compound `CN[C@H](CC(C)C)C(=O)Nc1ccc(-c2ccnc3[nH]ccc23)cc1` [Compound F-41, (2R)-4-Methyl-2-(methylamino)-N-[4-(1H-pyrrolo[2,3-b]pyridin-4-yl)phenyl]pentanamide], the IC50 amounted to 0.011 µM in assay [4], 0.006 µM in [5] and 0.345 µM in assay [6].
For `Cc1cc2c(-c3ccc(NC(=O)[C@H](N)CC(C)C)cc3)ccnc2[nH]1` [Compound F-48, (2R)-2-Amino-4-methyl-N-[4-[2-methyl-1H-pyrrolo[2,3-b]pyridin-4-yl]phenyl]pentanamide] the same measures were more than 3 µM, more than 3 µM and 0.122 µM.
For `Cc1cc(NC(=O)[C@H](N)CC(C)C)ccc1-c1ccnc2[nH]ccc12` [Compound F-58, (2R)-2-Amino-4-methyl-N-[3-methyl-4-(1H-pyrrolo[2,3-b]pyridin-4-yl)phenyl]pentanamide], in that order: 0.104 µM, 0.082 µM and more than 3 µM.
As for `Cc1cc(NC(=O)[C@H](N)C(C)(C)C)ccc1-c1ccnc2[nH]ccc12` [Compound F-59, (2R)-2-Amino-3,3-dimethyl-N-[3-methyl-4-(1H-pyrrolo[2,3-b]pyridin-4-yl)phenyl]butanamide], the IC50 is 0.546 µM in assay [4], 0.0491 µM in assay [2] (setting [12]), 0.319 µM in assay [5] and more than 3 µM in assay [6].
For `CC(C)C[C@@H](N)C(=O)Nc1ccc(-c2ccnc3[nH]ccc23)cc1F` [Compound F-70, (2R)-2-Amino-N-[2-fluoro-4-(1H-pyrrolo[2,3-b]pyridin-4-yl)phenyl]-4-methyl-Pentanamide], in that order: 0.049 µM, 0.0369 µM, 0.043 µM and 2.3 µM.
Turning to `COc1cc(-c2ccnc3[nH]ccc23)ccc1NC(=O)[C@H](N)CC(C)C` [Compound F-77, (2R)-2-Amino-N-[2-methoxy-4-(1H-pyrrolo[2,3-b]pyridin-4-yl)phenyl]-4-methyl-pentanamide], the figures for the IC50 in assay [4], in assay [5] and in assay [6] were 0.012 µM, 0.026 µM and 0.829 µM, respectively.
Consider `Cc1c[nH]c2nccc(-c3ccc(NC(=O)C(N)Cc4ccccc4)cc3)c12` (centres unmarked) [Compound F-135, 2-Amino-N-[4-(3-methyl-1H-pyrrolo[2,3-b]pyridin-4-yl)phenyl]-3-phenyl-propanamide], for which the IC50 in [3] worked out at 0.392 µM.
For `Cc1cc2c(-c3ccc(NC(=O)[C@@H](N)[C@H](O)C(C)C)cc3C)ccnc2[nH]1` [Compound F-161, (2S,3R)-2-Amino-3-hydroxy-4-methyl-N-[3-methyl-4-(2-methyl-1H-pyrrolo[2,3-b]pyridin-4-yl)phenyl]pentanamide], in assay [1], the Kd amounted to 4.3 nM. For the same compound, the IC50 is 0.023 µM in assay [1] (setting [11]) and 0.019 µM in assay [2] (setting [12]).
For `Cc1cc2c(-c3ccc(NC(=O)[C@H](N)[C@@H](O)C(C)C)cc3C)ccnc2[nH]1` [Compound F-162, (2R,3S)-2-Amino-3-hydroxy-4-methyl-N-[3-methyl-4-(2-methyl-1H-pyrrolo[2,3-b]pyridin-4-yl)phenyl]pentanamide], in that order: 1.9 nM, 0.01 µM and 0.005 µM.
Take `COc1cc(NC(=O)[C@H](N)C(C)(C)O)ccc1-c1ccnc2[nH]c(C)cc12` [Compound F-168, (2R)-2-Amino-3-hydroxy-N-[3-methoxy-4-(2-methyl-1H-pyrrolo[2,3-b]pyridin-4-yl)phenyl]-3-methyl-butanamide]: in assay [2] (setting [12]), the IC50 worked out at 1.53 µM.
The same measure, in the same setting: under `Cc1cc2c(-c3ccc(NC(=O)[C@H](N)CC(C)(C)C)cc3OC(F)F)ccnc2[nH]1` [Compound F-169, (2R)-2-Amino-N-[3-(difluoromethoxy)-4-(2-methyl-1H-pyrrolo[2,3-b]pyridin-4-yl)phenyl]-4,4-dimethyl-pentanamide] stands 0.053 µM; under `Cc1cc2c(-c3ccc(NC(=O)[C@H](N)C(C)(C)O)cc3OC(F)F)ccnc2[nH]1` [Compound F-170, (2R)-2-Amino-N-[3-(difluoromethoxy)-4-(2-methyl-1H-pyrrolo[2,3-b]pyridin-4-yl)phenyl]-3-hydroxy-3-methyl-butanamide], 0.315 µM; under `COc1cc(-c2ccnc3[nH]c(C)cc23)ncc1NC(=O)[C@H](N)CC(C)(C)C` [Compound F-171, (2R)-2-Amino-N-[4-methoxy-6-(2-methyl-1H-pyrrolo[2,3-b]pyridin-4-yl)-3-pyridyl]-4,4-dimethyl-pentanamide], 0.232 µM.
On the same count and under the same terms, with `COc1cc(NC(=O)[C@H](N)CC(C)(C)C)cnc1-c1ccnc2[nH]c(C)cc12` [Compound F-172, (2R)-2-Amino-N-[5-methoxy-6-(2-methyl-1H-pyrrolo[2,3-b]pyridin-4-yl)-3-pyridyl]-4,4-dimethyl-pentanamide] the figure was 3 µM; with `Cc1cc2c(-c3ccc(NC(=O)[C@H](N)C(C)(C)F)cc3C)ccnc2[nH]1` [Compound F-173, (2S)-2-Amino-3-fluoro-3-methyl-N-[3-methyl-4-(2-methyl-1H-pyrrolo[2,3-b]pyridin-4-yl)phenyl]butanamide], 0.461 µM.
